The source of these data is PMC8748872, “Crystal structure and functional implication of bacterial STING” (Nature Communications, 2022).

By stoichiometry N is commonly meant a count of units in the complex or per binding partner.

One assay addresses T1, PcSTING (Prevotella corporis, UniProt A0A133PTK7).
T1 construct: gene HMPREF3226_02659; C-terminal STING domain only; N-terminal His6-MBP or His6-SUMO tag removed by TEV; E. coli BL21(DE3); homodimer
Briefly: crystal structure; LC-MS/MS of co-purified ligand. It counts as binding. The note with it: co-purified endogenous ligand from E. coli; 2.25 A for the SeMet form.

Assay [1] has as its target full-length TIR-STING protein from Myroides sp. ZB35 (MyTIR-STING) (Myroides sp. ZB35). Nature of the assay: SEC; 16/60 Superdex 200 increase column; 20 mM Tris pH 8.0, 200 mM NaCl, 5% glycerol, 1 mM TCEP; no c-di-GMP added.

T1 sequence (A0A133PTK7 entry or part of it): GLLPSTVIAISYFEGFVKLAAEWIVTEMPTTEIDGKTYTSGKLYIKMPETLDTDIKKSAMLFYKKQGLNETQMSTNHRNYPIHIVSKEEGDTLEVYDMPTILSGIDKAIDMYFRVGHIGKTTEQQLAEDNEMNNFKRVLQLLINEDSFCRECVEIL

Turning to `Nc1nc2c(ncn2[C@@H]2O[C@@H]3COP(=O)(O)O[C@H]4[C@@H](O)[C@H](n5cnc6c(=O)[nH]c(N)nc65)O[C@@H]4COP(=O)(O)O[C@H]3[C@H]2O)c(=O)[nH]1` [c-di-GMP], the “crystal structure; LC-MS/MS of co-purified ligand” value on PcSTING was “PcSTING/c-di-GMP and MySTING/c-di-GMP complexes have been deposited in the Protein Data Bank”.

For the molecule “full-length TIR-STING protein from Myroides sp. ZB35 (MyTIR-STING) (natural protein)”, in assay [1], the stoichiometry N was determined as 2.
